From ChEMBL document CHEMBL1141685, “Hexahydro-pyrrolo- and hexahydro-1H-pyrido[1,2-b]pyridazin-2-ones as potent inhibitors of HCV NS5B polymerase” (Bioorg Med Chem Lett, 2008)

Key:
[1] = Cytotoxicity against human Huh7/C24 cells after 72 hrs […]; assay type: cell-based, Huh-7
[2] = Metabolic stability in human liver microsomes assessed as compound remaining at 1 uM after 60 mins; assay type: ADME, Microsome; conditions: read-out: Stability
[3] = Metabolic stability in cynomolgus monkey liver microsomes at 1 uM
[4] = test system: Hepatitis C virus; assay: Antiviral activity against HCV 1b infected in human Huh7/C24 cells after 72 hrs by replicon assay; assay type: functional, organism-based, Hepacivirus hominis; conditions: genotype 1b, Huh-7, 72 h
[5] = Metabolic stability in human liver microsomes at 1 uM
[6] = test system: Hepatitis C virus; assay: Inhibition of HCV 1b NS5B polymerase by microbeta scintillation counter; design: species or system Hepatitis C virus subtype 1b
[7] = Metabolic stability in cynomolgus monkey liver microsomes assessed as compound remaining at 1 uM after 60 mins; assay type: ADME, Macaca fascicularis, Microsome; conditions: read-out: Stability
[8] = Apparent permeability from apical to basolateral side in human Caco-2 cell membrane at 10 uM
[9] = test system: Cynomolgus monkey; assay: Hepatic blood flow in cynomolgus monkey; assay type: ADME, organism-based, Macaca fascicularis, Liver
[10] = test system: Cynomolgus monkey; assay: AUC (0 to infinity) in cynomolgus monkey at 1 mg/kg, iv; assay type: ADME, organism-based, Macaca fascicularis, Plasma; design: time infinity, dose 1 mg/kg, route intravenous; conditions: in vivo
[11] = Oral bioavailability in cynomolgus monkey at 1 mg/kg; assay type: ADME, organism-based, Macaca fascicularis; conditions: in vivo
[12] = test system: Cynomolgus monkey; assay: AUC (0 to infinity) in cynomolgus monkey at 1 mg/kg, po; assay type: ADME, organism-based, Macaca fascicularis, Plasma; design: time infinity, dose 1 mg/kg, route oral; conditions: in vivo
[13] = Fabs in cynomolgus monkey; assay type: ADME, organism-based, Macaca fascicularis; conditions: in vivo, read-out: Fabs

| remaining at 1 h, 1 µM [2] [%] | half-life at 1 µM ([3]; liver microsomes) [min] | EC50 [4] [nM] | half-life at 1 µM ([5]; liver microsomes) [min] | remaining at 1 h, 1 µM [7] [%] | Papp A→B at 10 µM [8] [×10⁻⁶ cm/s] | half-life at 1 µM ([3]; microsomes) [min] | half-life at 1 µM ([5]; microsomes) [min] | QH [9] [mL/min/kg] | AUC [10] [ng·h/mL] | bioavailability [11] [%] | AUC [12] [ng·h/mL] | Fa [13] [%] | SMILES | CC50 at 72 h [1] [nM] | IC50 [6] [nM] |
| --- | --- | --- | --- | --- | --- | --- | --- | --- | --- | --- | --- | --- | --- | --- | --- |
| 86 | > 60 | 12 | > 60 | – | – | – | – | – | – | – | – | – | CS(=O)(=O)Nc1ccc2c(c1)S(=O)(=O)N=C(c1c(O)c3cccn3n(Cc3ccc(F)cc3)c1=O)N2 | > 1000 | < 10 |
| 102 | – | 300 | – | 100 | 0.1 | > 60 | > 60 | – | – | – | – | – | CS(=O)(=O)Nc1ccc2c(c1)S(=O)(=O)N=C(C1=C(O)C3CCCCN3N(Cc3ccc(F)cc3)C1=O)N2 (configuration not stated) | > 1000 | 16 |
| – | 17 | 3600 | > 60 | – | – | – | – | – | – | – | – | – | CN(c1ccc2c(c1)S(=O)(=O)N=C(C1=C(O)C3CCCN3N(CCC(C)(C)C)C1=O)N2)S(C)(=O)=O (configuration not stated) | > 33000 | 160 |
| – | 10 | 1100 | 4.9 | – | 0.6 | – | – | – | – | – | – | – | CC(C)(C)CCN1C(=O)C(C2=NS(=O)(=O)c3cc(NS(C)(=O)=O)ccc3N2)=C(O)C2(C)CCCN12 (configuration not stated) | > 33000 | 180 |
| – | 18 | 110 | 52 | – | 0.31 | – | – | – | – | – | – | – | CC(C)(C)CCN1C(=O)C(C2=NS(=O)(=O)c3cc(NS(C)(=O)=O)ccc3N2)=C(O)C2CCCCN21 (configuration not stated) | > 33000 | 41 |
| 87 | > 60 | 190 | > 60 | 94 | 0.2 | – | – | – | – | – | – | – | CS(=O)(=O)Nc1ccc2c(c1)S(=O)(=O)N=C(C1=C(O)C3CCCN3N(Cc3ccc(F)cc3)C1=O)N2 (configuration not stated) | > 1000 | < 10 |
| – | – | 34 | – | – | 0.44 | 7.5 | 59 | 44 | 5180 | 7 | 344 | 8 | CC(C)(C)CCN1C(=O)C(C2=NS(=O)(=O)c3cc(NS(C)(=O)=O)ccc3N2)=C(O)C2CCCN21 (configuration not stated) | > 1000 | < 10 |
| 65 | – | 160 | – | – | 0.2 | 63 | > 60 | – | – | – | – | – | CC(C)CCN1C(=O)C(C2=NS(=O)(=O)c3cc(NS(C)(=O)=O)ccc3N2)=C(O)C2CCCN21 (configuration not stated) | > 1000 | 12 |
